ChEMBL document CHEMBL1671758, “Environmental study of azole-resistant Aspergillus fumigatus and other aspergilli in Austria, Denmark, and Spain” (2010)
Values after ≈ are worked out from the molar mass of the structure shown. Active and inactive are the calls of the source. No cut-off for these calls is given here.

How the values were obtained:
Aspergillus fumigatus [1] = test: Antifungal activity against azole-resistant Aspergillus fumigatus isolate R13 harboring Cyp51A TR/L98H mutant gene assessed as inhibition of fungal growth at 4 mg/l relative to control; assay type: functional, organism-based
Aspergillus fumigatus [2] = test: Antifungal activity against azole-resistant Aspergillus fumigatus isolate T11 harboring Cyp51A TR/L98H mutant gene assessed as inhibition of fungal growth at 4 mg/l relative to control; assay type: functional, organism-based
Aspergillus fumigatus [3] = test: Antifungal activity against azole-susceptible Aspergillus fumigatus isolate CM-237 assessed as fungal growth at 4 mg/l relative to control; assay type: functional, organism-based
Aspergillus fumigatus [4] = test: Antifungal activity against azole-resistant Aspergillus fumigatus isolate T18 harboring Cyp51A TR/L98H mutation assessed as inhibition of fungal growth at 4 mg/l relative to control; assay type: functional, organism-based
Aspergillus fumigatus [5] = test: Antifungal activity against azole-resistant Aspergillus fumigatus isolate T22 harboring Cyp51A TR/L98H mutation assessed as inhibition of fungal growth at 4 mg/l relative to control; assay type: functional, organism-based
Aspergillus fumigatus [6] = test: Antifungal activity against azole-susceptible Aspergillus fumigatus isolate CM-237 by EUCAST microdilution method; assay type: functional
Aspergillus niger = test: Antifungal activity against Aspergillus niger isolate; assay type: functional
Aspergillus nidulans = test: Antifungal activity against Aspergillus nidulans isolate; assay type: functional
Aspergillus lentulus = test: Antifungal activity against Aspergillus lentulus isolate; assay type: functional
Aspergillus fumigatus [7] = test: Antifungal activity against Aspergillus fumigatus isolates harboring Cyp51A TR/L98H mutation by EUCAST method; assay type: functional
Aspergillus fumigatus [8] = test: Antifungal activity against azole-resistant Aspergillus fumigatus isolate T11 harboring Cyp51A TR/L98H mutant gene assessed as inhibition of fungal growth at 0.5 mg/l relative to control; assay type: functional, organism-based
Aspergillus fumigatus [9] = test: Antifungal activity against azole-resistant Aspergillus fumigatus isolate R13 harboring Cyp51A TR/L98H mutant gene assessed as inhibition of fungal growth at 0.5 mg/l relative to control; assay type: functional, organism-based
Aspergillus fumigatus [10] = test: Antifungal activity against azole-susceptible Aspergillus fumigatus isolate CM-237 assessed as fungal growth at 0.5 mg/l relative to control; assay type: functional, organism-based
Aspergillus fumigatus [11] = test: Antifungal activity against azole-resistant Aspergillus fumigatus isolate T18 harboring Cyp51A TR/L98H mutation assessed as inhibition of fungal growth at 0.5 mg/l relative to control; assay type: functional, organism-based
Aspergillus fumigatus [12] = test: Antifungal activity against azole-resistant Aspergillus fumigatus isolate T22 harboring Cyp51A TR/L98H mutation assessed as inhibition of fungal growth at 0.5 mg/l relative to control; assay type: functional, organism-based
Aspergillus fumigatus [13] = test: Antifungal activity against azole-resistant Aspergillus fumigatus isolate T11 harboring Cyp51A TR/L98H mutant gene assessed as inhibition of fungal growth at 1 mg/l relative to control; assay type: functional, organism-based
Aspergillus fumigatus [14] = test: Antifungal activity against azole-resistant Aspergillus fumigatus isolate R13 harboring Cyp51A TR/L98H mutant gene assessed as inhibition of fungal growth at 1 mg/l relative to control; assay type: functional, organism-based
Aspergillus fumigatus [15] = test: Antifungal activity against azole-susceptible Aspergillus fumigatus isolate CM-237 assessed as fungal growth at 1 mg/l relative to control; assay type: functional, organism-based
Aspergillus fumigatus [16] = test: Antifungal activity against azole-resistant Aspergillus fumigatus isolate T18 harboring Cyp51A TR/L98H mutation assessed as inhibition of fungal growth at 1 mg/l relative to control; assay type: functional, organism-based
Aspergillus fumigatus [17] = test: Antifungal activity against azole-resistant Aspergillus fumigatus isolate T22 harboring Cyp51A TR/L98H mutation assessed as inhibition of fungal growth at 1 mg/l relative to control; assay type: functional, organism-based

Row | SMILES | inhibition (Aspergillus fumigatus [1]) | inhibition (Aspergillus fumigatus [2]) | Activity (Aspergillus fumigatus [3]) | inhibition (Aspergillus fumigatus [4]) | inhibition (Aspergillus fumigatus [5]) | MIC (Aspergillus fumigatus [6]) [µg/mL] | MIC (Aspergillus niger) [µg/mL] | MIC (Aspergillus nidulans) [µg/mL] | MIC (Aspergillus lentulus) [µg/mL] | MIC (Aspergillus fumigatus [7]) [µg/mL] | inhibition (Aspergillus fumigatus [8]) | inhibition (Aspergillus fumigatus [9]) | Activity (Aspergillus fumigatus [10]) | inhibition (Aspergillus fumigatus [11]) | inhibition (Aspergillus fumigatus [12]) | inhibition (Aspergillus fumigatus [13]) | Activity (Aspergillus fumigatus [14]) | inhibition (Aspergillus fumigatus [15]) | Activity (Aspergillus fumigatus [16]) | Activity (Aspergillus fumigatus [17])
1 | CCC(C)n1ncn(-c2ccc(N3CCN(c4ccc(OCC5COC(Cn6cncn6)(c6ccc(Cl)cc6Cl)O5)cc4)CC3)cc2)c1=O (stereo not given) [ITRACONAZOLE] | Active | inactive | Active | inactive | inactive | 0.25 (≈ 0.354 µM) | 2 (≈ 2.83 µM) | 1 (≈ 1.42 µM) | 0.5 (≈ 0.709 µM) | > 4 | – | – | – | – | – | – | – | – | – | –
2 | CC[C@@H]([C@H](C)O)n1ncn(-c2ccc(N3CCN(c4ccc(OC[C@@H]5CO[C@@](Cn6cncn6)(c6ccc(F)cc6F)C5)cc4)CC3)cc2)c1=O [POSACONAZOLE] | – | – | – | – | – | 0.06 (≈ 0.0856 µM) | 0.5 (≈ 0.713 µM) | 0.5 (≈ 0.713 µM) | 0.25 (≈ 0.357 µM) | 0.25 (≈ 0.357 µM) | inactive | Active | Active | Active | Active | – | – | – | – | –
3 | C[C@@H](c1ncncc1F)[C@](O)(Cn1cncn1)c1ccc(F)cc1F [VORICONAZOLE] | – | – | – | – | – | 0.5 (≈ 1.43 µM) | 0.5 (≈ 1.43 µM) | 4 (≈ 11.5 µM) | 4 (≈ 11.5 µM) | 2 (≈ 5.73 µM) | – | – | – | – | – | Active | inactive | Active | Active | Active
